For one test, the target named is PLK-1 (Caenorhabditis elegans, UniProt P34331). The test is described as follows: in vitro radiometric kinase assay ([γ-32P]ATP, GST-LMN-1 head substrate). It counts as biochemical.
The target in another test is LET-23 (Caenorhabditis elegans, UniProt P24348). Briefly: continuous enzyme-coupled kinase assay on lipid vesicles, percent inhibition. It counts as biochemical.
Chain of LET-23 (P24348 866-1191): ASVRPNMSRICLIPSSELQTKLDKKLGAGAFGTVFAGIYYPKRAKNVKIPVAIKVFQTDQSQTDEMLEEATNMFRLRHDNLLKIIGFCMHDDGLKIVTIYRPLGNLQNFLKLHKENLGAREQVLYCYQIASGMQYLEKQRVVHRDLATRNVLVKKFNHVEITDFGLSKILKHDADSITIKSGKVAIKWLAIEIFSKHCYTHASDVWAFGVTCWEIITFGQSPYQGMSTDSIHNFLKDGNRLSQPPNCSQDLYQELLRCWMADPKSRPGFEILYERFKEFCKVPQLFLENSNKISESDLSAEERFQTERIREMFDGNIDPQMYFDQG

Chain of PLK-1 (P34331 whole entry): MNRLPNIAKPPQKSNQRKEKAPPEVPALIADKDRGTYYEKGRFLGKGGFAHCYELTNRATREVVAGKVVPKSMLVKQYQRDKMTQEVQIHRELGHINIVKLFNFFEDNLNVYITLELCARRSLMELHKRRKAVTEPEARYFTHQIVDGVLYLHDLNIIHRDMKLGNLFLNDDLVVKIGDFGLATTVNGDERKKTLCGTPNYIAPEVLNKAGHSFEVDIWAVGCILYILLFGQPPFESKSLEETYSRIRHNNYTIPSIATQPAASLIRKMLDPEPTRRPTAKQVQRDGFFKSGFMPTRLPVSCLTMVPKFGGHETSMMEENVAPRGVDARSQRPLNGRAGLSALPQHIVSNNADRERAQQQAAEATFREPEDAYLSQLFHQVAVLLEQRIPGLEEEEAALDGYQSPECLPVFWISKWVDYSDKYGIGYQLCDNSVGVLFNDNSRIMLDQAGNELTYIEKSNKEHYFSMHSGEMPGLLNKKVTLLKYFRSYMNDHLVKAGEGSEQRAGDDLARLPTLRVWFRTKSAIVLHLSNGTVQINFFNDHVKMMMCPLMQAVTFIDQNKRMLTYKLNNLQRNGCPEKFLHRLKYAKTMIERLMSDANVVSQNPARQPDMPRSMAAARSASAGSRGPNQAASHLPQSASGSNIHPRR

The IC50 is the concentration that inhibits the measured activity by half. A higher IC50 goes with weaker potency in that assay. Take `C[C@@H](Oc1cc(-n2cnc3cc(-c4ccncc4)ccc32)sc1C(N)=O)c1ccccc1Cl` [GSK479719A]: at PLK-1, the IC50 is 39 nM. Consider `C[C@@H](Oc1cc(-n2cnc3ccc(-c4ccncc4)cc32)sc1C(N)=O)c1ccccc1Cl` [GSK483724A], for which the IC50 on PLK-1 turned out to be 91 nM.

For `[O-][S+]1CCN(Cc2ccc(-c3ccc4ncnc(Nc5ccc(OCc6ccccc6)c(Cl)c5)c4c3)o2)CC1` [GW583373A], the “continuous enzyme-coupled kinase assay on lipid vesicles, percent inhibition” value at LET-23 was “The ATOP and 4AQ scaffold compounds tested were able to inhibit LET-23 kinase activity”. On the same count and under the same terms, as for `CS(=O)(=O)CCNCc1ccc(-c2ccc3ncnc(Nc4ccc(OCc5cccc(F)c5)c(C(F)(F)F)c4)c3c2)o1` [GW576484X], the entry is “The ATOP and 4AQ scaffold compounds tested were able to inhibit LET-23 kinase activity”.

(Values after PMC8080662 (Scientific Reports, 2021).)
